pEC50: −log10 of the molar value. Converted amounts (≈) assume the structure as drawn. Like-named read-outs stand apart in the source and are kept apart here.
Legend:
RSV A2 = assay: RSV antiviral CPE assay in HEp2 cells (MTT); assay type: cell-based, respiratory syncytial virus; details: for pEC50: human respiratory syncytial virus, HEp-2, 120 h, HEp2 cells, RSV A2 moi ~0.01, 5 days, CPE by MTT; for activity compared with the 3-substituted isoxazol-4-yls of the present invention: comparative RSV activity
Description: Compounds of the invention were tested for their antiviral activity against respiratory syncytial virus. Cytopathic effect (CPE) assays were performed essentially as described in the literature (see for example Watanabe et al, 1994, J. Virological Methods, 48:257). Serial dilutions of the test compounds were made in 96 well plates. HEp2 cells (1.0×10^4 cells/well) were infected with RSV at a low multiplicity of infection (e.g. RSV A2 at an moi of ˜0.01) and added to plates to assess antiviral activity. Uninfected HEp2 cells were used to assess compound cytotoxicity. Assays were incubated for 5 days at 37° C. in a 5% CO2 atmosphere. The extent of CPE was determined via metabolism of the vital dye 3-(4,5-dimethylthiaxol-2-yl)-2,5-diphenyltetrazolium bromide (MTT). MTT (1 mg/ml) was added to each well and plates incubated for 2 hours incubation at 37° C. Wells were aspirated, iso-propanol (200 μL) was added and absorbance values read at 540/650 nm. Compound concentrations that inhibited CPE by 50% (EC50) and developed cytotoxicity (CC50) were calculated using non-linear regression analysis. The CC50 values of the compounds tested were determined to be >5000 nM.

[1] = Aqueous solubility by laser nephelometry; assay type: physicochemical; details: for solubility at 30 min: kinetic from dmso stock, 1% DMSO, 30 minute incubation at 25° C., range 1.6-100; for solubility compared with the 3-substituted isoxazol-4-yls of the present invention: comparative solubility
Description: Test compounds prepared in DMSO were screened in duplicate over a range of concentrations (1.6-100 ug/mL) in different aqueous media (for example pH2 or pH6.5 buffers which are relevant to the stomach and upper regions of the small intestine). Test compounds were serially diluted in 100% DMSO ranging from 10-0.16 mg/mL. These diluted compounds were then added to test plates (UV Star Griener 96 well plates) containing assay buffers with a further 1:100 dilution keeping a constant 1% DMSO concentration across the plate.

[2] = pH 2, simulated gastric fluid, pH2 buffer, read-out: Solubility at pH2
[3] = pH 6.5, aqueous buffer, pH6.5 buffer, read-out: Solubility at pH6.5

Row | Structure (SMILES) | pEC50 (RSV A2) | solubility at 30 min [1, 2] | solubility at 30 min [1, 3] | activity compared with the 3-substituted isoxazol-4-yls of the present invention (RSV A2) | solubility compared with the 3-substituted isoxazol-4-yls of the present invention [1] | drop in activity against the 3-substituted isoxazol-4-yl compound of example 4 (RSV A2; RSV A2 antiviral activity, compared with example 4)
1 | Cc1nocc1C(=O)N1CCN2C(=O)c3nccnc3C[C@]12c1ccc(Cl)cc1 (single isomer, unassigned) [Compound 1A] | 8.28 | 50 to 100 µg/mL (≈ 122 to 244 µM) | > 100 µg/mL | – | – | –
2 | Cc1nocc1C(=O)N1CCN2C(=O)c3ncccc3C[C@@]12c1ccc(Cl)cc1 (single isomer, unassigned) [Compound 2B] | 5.30 | – | – | – | – | –
3 | Cc1nocc1C(=O)N1CCN2C(=O)c3ncccc3C[C@]12c1ccc(F)cc1 (single isomer, unassigned) [Compound 4A] | 7.79 | > 100 µg/mL | > 100 µg/mL | – | – | –
4 | Cc1nocc1C(=O)N1CCN2C(=O)c3nccnc3C[C@]12c1ccc(F)cc1 (single isomer, unassigned) [Compound 5A] | 7.91 | > 100 µg/mL | > 100 µg/mL | – | – | –
5 | Cc1cc([C@]23Cc4cccnc4C(=O)N2CCN3C(=O)c2conc2C)ccc1F (single isomer, unassigned) [Compound 6A] | 8.11 | 50 to 100 µg/mL (≈ 123 to 246 µM) | > 100 µg/mL | – | – | –
6 | Cc1nocc1C(=O)N1CCN2C(=O)c3nccnc3CC12c1ccc(Cl)cc1 (stereo not drawn) [Compound 1, 5a-(4-chlorophenyl)-6-[(3-methyl-1,2-oxazol-4-yl)carbonyl]-5a,6,7,8-tetrahydroimidazo[1′,2′:1,6]pyrido[3,4-b]pyrazin-10(5H)-one] | 8.20 | 50 to 100 µg/mL (≈ 122 to 244 µM) | 50 to 100 µg/mL (≈ 122 to 244 µM) | – | – | –
7 | O=C(c1ccno1)N1CCN2C(=O)c3ccccc3CC12c1ccc(Cl)cc1 (stereo not drawn) [Compound 1-025, reference compound] | 5.77 | 3.1 to 6.3 µg/mL (≈ 7.87 to 16 µM) | 3.1 to 6.3 µg/mL (≈ 7.87 to 16 µM) | less active | less soluble | –
8 | O=C(c1ccon1)N1CCN2C(=O)c3cccc(F)c3CC12c1ccc(Cl)cc1 (stereo not drawn) [Compound 1-086, reference compound] | 6.76 | < 1.6 µg/mL | < 1.6 µg/mL | less active | less soluble | –
9 | O=C(c1ccno1)N1CCN2C(=O)c3cccc(F)c3CC12c1ccc(Cl)cc1 (stereo not drawn) [Compound 1-088, reference compound] | 6.57 | 3.1 to 6.3 µg/mL (≈ 7.53 to 15.3 µM) | 3.1 to 6.3 µg/mL (≈ 7.53 to 15.3 µM) | less active | less soluble | –
10 | O=C(c1ccno1)N1CCN2C(=O)c3cccnc3CC12c1ccc(Cl)cc1 (stereo not drawn) [Compound 1-100, reference compound] | 6.25 | – | – | less active | less soluble | –
11 | COc1ccc(C23Cc4cccnc4C(=O)N2CCN3C(=O)c2conc2C)cc1 (stereo not drawn) [Compound 3, 10a-(4-methoxyphenyl)-1-[(3-methyl-1,2-oxazol-4-yl)carbonyl]-2,3,10,10a-tetrahydroimidazo[2,1-g][1,7]naphthyridin-5(1H)-one] | 7.08 | > 100 µg/mL | > 100 µg/mL | – | – | –
12 | Cc1nocc1C(=O)N1CCN2C(=O)c3ncccc3CC12c1ccc(F)cc1 (stereo not drawn) [Compound 4, 10a-(4-fluorophenyl)-1-[(3-methyl-1,2-oxazol-4-yl)carbonyl]-2,3,10,10a-tetrahydroimidazo[2,1-g][1,7]naphthyridin-5(1H)-one] | 7.56 | > 100 µg/mL | > 100 µg/mL | – | – | –
13 | Cc1nocc1C(=O)N1CCN2C(=O)c3nccnc3CC12c1ccc(F)cc1 (stereo not drawn) [Compound 5, 5a-(4-fluorophenyl)-6-[(3-methyl-1,2-oxazol-4-yl)carbonyl]-5a,6,7,8-tetrahydroimidazo[1′,2′:1,6]pyrido[3,4-b]pyrazin-10(5H)-one] | 7.56 | > 100 µg/mL | > 100 µg/mL | – | – | –
14 | Cc1cc(C23Cc4cccnc4C(=O)N2CCN3C(=O)c2conc2C)ccc1F (stereo not drawn) [Compound 6, 10a-(4-fluoro-3-methylphenyl)-1-[(3-methyl-1,2-oxazol-4-yl)carbonyl]-2,3,10,10a-tetrahydroimidazo[2,1-g][1,7]naphthyridin-5(1H)-one] | 8.19 | 25 to 50 µg/mL (≈ 61.5 to 123 µM) | 50 to 100 µg/mL (≈ 123 to 246 µM) | – | – | –
15 | Cc1nocc1C(=O)N1CCN2C(=O)c3ncccc3CC12c1ccc(F)c(F)c1 (stereo not drawn) [Compound 7, 10a-(3,4-difluorophenyl)-1-[(3-methyl-1,2-oxazol-4-yl)carbonyl]-2,3,10,10a-tetrahydroimidazo[2,1-g][1,7]naphthyridin-5(1H)-one] | 7.46 | 25 to 50 µg/mL (≈ 60.9 to 122 µM) | 50 to 100 µg/mL (≈ 122 to 244 µM) | – | – | –
16 | Cc1nocc1C(=O)N1CCN2C(=O)c3nccnc3CC12c1ccc(F)c(F)c1 (stereo not drawn) [Compound 8, 5a-(3,4-difluorophenyl)-6-[(3-methyl-1,2-oxazol-4-yl)carbonyl]-5a,6,7,8-tetrahydroimidazo[1′,2′:1,6]pyrido[3,4-b]pyrazin-10(5H)-one] | 7.52 | > 100 µg/mL | > 100 µg/mL | – | – | –
17 | Cc1cc(C23Cc4nccnc4C(=O)N2CCN3C(=O)c2conc2C)ccc1F (stereo not drawn) [Compound 9, 5a-(4-fluoro-3-methylphenyl)-6-[(3-methyl-1,2-oxazol-4-yl)carbonyl]-5a,6,7,8-tetrahydroimidazo[1′,2′:1,6]pyrido[3,4-b]pyrazin-10(5H)-one] | 8.05 | 50 to 100 µg/mL (≈ 123 to 245 µM) | > 100 µg/mL | – | – | –
18 | Cc1nocc1C(=O)N1CCN2C(=O)c3ncccc3CC12c1ccccc1Cl (stereo not drawn) [Compound 10, 10a-(2-chlorophenyl)-1-[(3-methyl-1,2-oxazol-4-yl)carbonyl]-2,3,10,10a-tetrahydroimidazo[2,1-g][1,7]naphthyridin-5(1H)-one] | 7.43 | > 100 µg/mL | > 100 µg/mL | – | – | –
19 | Cc1nocc1C(=O)N1CCN2C(=O)c3ncccc3CC12C1CCCCC1 (stereo not drawn) [Compound 11, 10a-cyclohexyl-1-[(3-methyl-1,2-oxazol-4-yl)carbonyl]-2,3,10,10a-tetrahydroimidazo[2,1-g][1,7]naphthyridin-5(1H)-one] | 7.15 | > 100 µg/mL | > 100 µg/mL | – | – | –
20 | Cc1nocc1C(=O)N1CCN2C(=O)c3ncccc3CC12C1CCC(F)(F)CC1 (stereo not drawn) [Compound 12, 10a-(4,4-difluorocyclohexyl)-1-[(3-methyl-1,2-oxazol-4-yl)carbonyl]-2,3,10,10a-tetrahydroimidazo[2,1-g][1,7]naphthyridin-5(1H)-one] | 7.19 | 50 to 100 µg/mL (≈ 120 to 240 µM) | > 100 µg/mL | – | – | –
21 | O=C(c1conc1C(F)(F)F)N1CCN2C(=O)c3ncccc3CC12c1ccc(Cl)cc1 (stereo not drawn) [Compound 13, 10a-(4-chlorophenyl)-1-{[3-(trifluoromethyl)-1,2-oxazol-4-yl]carbonyl}-2,3,10,10a-tetrahydroimidazo[2,1-g][1,7]naphthyridin-5(1H)-one] | 8.15 | 50 to 100 µg/mL (≈ 108 to 216 µM) | 50 to 100 µg/mL (≈ 108 to 216 µM) | – | – | –
22 | Cc1oncc1C(=O)N1CCN2C(=O)c3ncccc3CC12c1ccc(F)cc1 (stereo not drawn) [Compound A, reference compound] | 6.56 | – | – | – | – | ten-fold drop in activity
